Source: patent publication US10696615B2, “Prenylated hydroxystilbenes” (The University of Sydney, priority 2011, dated 2020)

What was measured:
[1] = DPPH scavenging activity assay; conditions: FIG. 10, result in words
Experimental: The (1,1-diphenyl-2-picrylhydrazyl) DPPH assay is commonly used to test free radical scavenging ability of a compound or extracts of natural products by measurement of the reduction of DPPH* radicals at 517 nm. […] Upon reduction by an antioxidant or radical scavenger, the absorption disappears and the resulting decolorization by scavenging the radical is stoichiometric with respect to the number of electrons taken up (DPPH*+AH→DPPH:H+A*). The DPPH assay was carried out in a stepwise procedure as described below.
A methanolic solution of DPPH (0.1 mM) was stirred in a dark container at room temperature for 20 min. The solution was scanned between 400-750 nm to obtain a maximum wavelength (λmax, ˜510 nm). The concentration of the DPPH solution was adjusted with methanol to result in a maximum absorbance of approximately 1.0. Test samples at different concentrations and standard antioxidant solution (0.05 mL) were added to 0.95 mL of methanolic DPPH solution in a cuvette. Final concentrations of the test samples were 0.1, 1, 10, 50, 100 and 200 μM. The mixtures were shaken vigorously and allowed to stand in the dark for 30 min at room temperature. Absorbance of the resulting solution was measured at the maximum wavelength (˜510 nm). A decrease in absorbance indicated a free radical scavenging effect of the test samples. […]

[2] = Acute toxicity study (maximum tolerated dose); assay type: in vivo; conditions: for Death days / Survivor/Total day 15: IP, single dose
Experimental: A single mouse is given a single IP injection of 400 mg/kg; a second mouse receives a dose of 200 mg/kg IP and a third mouse receives a single dose of 100 mg/kg IP. The mice are observed for a period of 2 weeks. They are sacrificed if they lose more than 20% of their body weight or if there are other signs of significant toxicity. If all 3 mice must be sacrificed, then the next 3 dose levels (50, 25, 12.5 mg/kg) are tested in a similar way. This process is repeated until a tolerated dose is found. This dose is then designated the maximum tolerated dose (MTD) and is used to calculate the amount of material given to experimental mice during anti-tumor testing. The mice are allowed ad libitum feed and water. Drug was dissolved in 100% DMSO at concentration of 200 mg/mL.

SMILES | effect on free radical scavenging [1] | MTD at 2 weeks ([2]; in vivo, mouse, single IP injection, observed 2 weeks) [mg/kg] | Death days ([2]; mouse, 100 mg/kg/dose) | Survivor/Total day 15 ([2]; mouse, 100 mg/kg/dose) | Death days ([2]; mouse, 200 mg/kg/dose) | Survivor/Total day 15 ([2]; mouse, 200 mg/kg/dose) | Death days ([2]; mouse, 400 mg/kg/dose) | Survivor/Total day 15 ([2]; mouse, 400 mg/kg/dose) | mammalian toxicity ([2]; result in words)
CC(C)=CCc1c(O)cc(/C=C/c2ccc(O)c(O)c2)c(CC=C(C)C)c1O [USYDS7, (E)-2,4-di(3-methyl-2-buten-1-yl)-3,3′,4′,5-tetrahydroxystilbene] | strong effect |  |  |  |  |  |  |  | 
COc1cc(/C=C/c2cc(O)cc(OC)c2CC=C(C)C)ccc1O [USYDS1, (E)-2-(3-methyl-2-buten-1-yl)-4′,5-dihydroxy-3,3′-dimethoxystilbene] |  | 100 | None | 1/1 | 1 | 0/1 | 1 | 0/1 | low mammalian toxicity
